Patent US4868203A, “Bacterial substance and pharmaceutical composition thereof” (Kabushikikaisha Ueno Seiyaku Oyo Kenkyujo, priority 1986, dated 1989)
Values after ≈ are worked out from the molar mass of the structure shown.

Tests used:
[1] = Solubility in various solvents
[2] = Preservability of potato salad (Test Example 6); conditions: for Living bacteria: at end of storage life
Method: Bacterial substance UFC-N11 was added to potato (300 g), carrot (50 g), sliced onion (60 g), sliced cucumber (80 g), salad oil (15 g), vinegar (12. 5 g), NaCl (2 g), pepper (0.05 g) and mayonnaise (100 g) (total: ca 620 g) to prepare potato salad. Test samples (20 g/group) were packed in 200 ml mayonnaise bottles, sealed and examined for the preservability at 30° C. Potato and carrot were boiled and cut into appropriate size before use. The period until emission of a putrid smell is defined as effective storage life. General living bacterial number of samples at that time was also measured.

[3] = system: Salmonella enteritidis 1891; type: cell-based
Method: The minimum growth inhibitory concentration (MIC) values of bacterial substance UFC-N11 to various kinds of bacteria determined according to the conventional method were measured in the conventional manner.

[4] = system: Pseudomonas syringae PV lachrymans NIAES 1316; experiment: Evaluation of activity against the bacterial spot of cucumber (Test Example 3); type: in vivo; conditions: 50 ppm
Method: Cucumber(Green tokiwa) was used for the test. Potted cucumber plants (2 leaf stage) were sprayed with sufficient amount of 50 ppm solution of bacterial substance UFC-N11 (dissolved in 0.05% aqueous sodium bicarbonate), air-dried, and spray-inoculated 10^8 /ml suspension of Pseudomonas Syringae PV lachrymans NIAES 1316, cultured on Wakimoto medium for 3 days, on both sides of leaves. For the control, an experiment was carried out using a solution without the substance N11 in the same manner as described above. After inoculation, the plants were maintained at 28° C. for 24 hours and maintained in a glass house until the day of evaluation. Six days after inoculation, percentage of spots area affected on the first and second seed leaf was observed and protection value was calculated according to the following formula: [formula] The experiment was repeated using Cu(OH)2 (Kosaid) 83% wettable powder (produced by Hokko chemical Industry Co. Ltd.) as a positive reference. In this case CaCO3 (Kurefunon) (produced by Shiraishi Calcium) was added (×200) in order to reduce damage.

[5] = system: Xandomonas campestris PV oryzae H75373; type: cell-based

For `CC=CC=CC=CC(=O)NC(CC(=O)NC(C(=O)C1C(=O)NC(=O)C1C)C(C)C)c1ccccc1` (centres unmarked) [UFC-N11], which “Solubility in various solvents” value ([1]; n-hexane, chloroform, benzene and water) is on record?
The value was “slightly soluble or insolbule”.

And the “Solubility in various solvents” value ([1]; pyridine, acetic acid, dimethyl sulfoxide, methanol, ethanol, acetone, ethyl acetate and dimethyl ether)?
The value was “soluble”.

And the Living bacteria ([2]; 0.05 ppm)?
The Living bacteria was 5.9e+06 g⁻¹.

What about the Storage life ([2]; 0.05 ppm, pH 5.14, 30° C.) of the same compound?
Its Storage life is 24 h.

And the Living bacteria ([2]; 0.5 ppm)?
Its Living bacteria is 2.8e+07 g⁻¹.

And the Storage life ([2]; 0.5 ppm, pH 5.15, 30° C.)?
Its Storage life is 30 h.

And the Living bacteria ([2]; 5.0 ppm)?
The Living bacteria was 8.1e+06 g⁻¹.

And the Storage life ([2]; 5.0 ppm, pH 5.15, 30° C.)?
Its Storage life is 43 h.

What about the Living bacteria ([2]; 50 ppm) of the same compound?
The Living bacteria was 5.5e+07 g⁻¹.

What about the Storage life ([2]; 50 ppm, pH 5.16, 30° C.) of the same compound?
The Storage life was 56 h.

And the MIC [3]?
The MIC was 0.78 µg/mL (≈ 1.63 µM).

What about the Damage ([4]; cucumber plants) of the same compound?
The Damage was “Nil”.

And the Protection ([4]; sprayed before inoculation, 6 days)?
Its Protection is 36.8.

What about the MIC [5] of the same compound?
Its MIC is 0.05 µg/mL (≈ 0.104 µM).
